Data on 79 compounds can be found in the METLIN SMRT retention time set (Domingo-Almenara et al. 2019).

SMILES strings stand for the structures.

This data set is described as follows: gradient 5% acetonitrile 3 min, to 50% in 2 min, to 85% in 15 min, held 3 min, 100 µL/min. The conditions noted are these: column: Zorbax Extend-C18 2.1 x 50 mm; eluents: water / acetonitrile, 0.1% formic acid. The gist of the method:
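Each retention time is based on an adduct peak selected computationally and verified by manual inspection. Measurements used HPLC–quadrupole time-of-flight mass spectrometry in positive and negative ionization mode on mixtures of ~100 pure standards. Chromatography ran on a Zorbax Extend-C18 column (2.1 × 50 mm, 1.8 μm) at 100 μL/min with water and acetonitrile, each containing 0.1% formic acid, and dead and dwell volumes of 40 μL and 900 μL.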
For `CSc1nc(NC(C)C)c(C#N)c(-c2ccccc2)n1`, the RP-LC retention time was 1190 s. `O=C(C1CCCN(c2ncnc3c2nc2n3CCCCC2)C1)N1CCC(Cc2ccccc2)CC1` (centres undefined) yielded an RP-LC retention time of 1000 s. The compound `Cc1ccccc1CN1N=C(C(=O)N2CCOCC2)S(=O)(=O)c2ccccc21` came in with an RP-LC retention time of 826 s. `CCCN1C(=O)c2cc(S(=O)(=O)Nc3ccc(C)c(F)c3)ccc2Oc2cccnc21`: the RP-LC retention time turned out to be 1120 s. For `COC[C@@H]1CN(C(=O)c2cc(Cl)ccc2F)C[C@H]1C(N)=O`, the RP-LC retention time came out at 611 s. The same measure for `Cc1cc(Cl)ccc1NS(=O)(=O)c1cc(-c2cc(C(F)(F)F)on2)sc1C`: 1260 s; for `O=C(NCCn1c(=O)n(Cc2ccccc2)c2cccnc21)c1nccc2ccccc12`: 836 s. With `Cc1oc(-c2ccccc2)nc1Cc1noc(Cc2c[nH]c3ccccc23)n1` the figure was 1010 s; with `Cc1cc2n(n1)CCCN2C(=O)CCC(=O)NCc1ccc(N(C)C)cc1`, 609 s.

Compound `COc1cccc(-c2nc(Cn3ccn4nc(-c5ccc(F)cc5)cc4c3=O)c(C)o2)c1OC` had an RP-LC retention time of 1080 s. Compound `Cc1sc(NC(=O)c2ccccc2)c(C(=O)NCCN(C)C)c1C` returned an RP-LC retention time of 677 s.

In the case of `Cc1ccc(C)c(N2CCN(C(=O)C3CCN(c4cnc5nccnc5c4)CC3)CC2)c1`, the RP-LC retention time was 907 s.

The compound `O=C(NCc1ccccc1)Nc1ccc2nc(-c3ccccc3)cc(N3CCOCC3)c2c1` gave an RP-LC retention time of 709 s. `Cc1nc(-c2ccc(Cl)cc2)sc1C(=O)N1CCN(c2ncccn2)CC1` had an RP-LC retention time of 961 s. For the compound `O=C(CSc1ccc(F)cc1)NCC1CCN(Cc2cccs2)CC1`, the RP-LC retention time was 566 s.

Regarding `COc1nccnc1N1CCC(NC(=O)c2ccsc2)C1` (centres undefined), the RP-LC retention time is 645 s. The same measure for `CCn1c(=O)c(N2CCN(C(=O)Nc3ccccc3Br)CC2)nc2cccnc21`: 991 s; for `COc1ccc(C2CC(=O)N(c3ccc(C(C)C)cc3)C(=O)C2)cc1`: 1030 s. As to `CC(=O)c1cccc(NC(=O)c2cccc3ccccc23)c1`, the RP-LC retention time worked out at 840 s. `CC(C)NC(=O)CC1Sc2ncccc2N(C)C1=O` (centres undefined) had an RP-LC retention time of 604 s.

Consider `COC(=O)c1sc2ccccc2c1NC(=O)c1cc(C)n(C)n1`, for which the RP-LC retention time was 886 s. The same measure for `COc1cccc(-c2nc3sc(C(=O)N4CCOCC4)c(C)n3c2NC(C)(C)C)c1`: 795 s; for `Cc1cc(C(=O)NCC23CCCC=C2N(CC2CC2)C(=O)CC3)n(C)n1` (centres undefined): 800 s; for `CCC(=O)N1CCc2cc(-c3ccc(C(=O)NC(C)C)cc3)ccc21`: 832 s. As to `COc1ccc(-c2nc(C3CC(=O)N(c4ccc(OC)c(OC)c4)C3)no2)cc1F` (centres undefined), the RP-LC retention time is 853 s. With `COc1cc(-c2nc(-c3ccc4c(c3)oc(=O)n4C(C)C)no2)cc(OC)c1OC` the figure was 1110 s; with `CC(C)c1nc2c(NC(=O)c3ccc(Br)o3)cccn2n1`, 908 s. The same measure for `Cc1nc(C)c(C(=O)N2CCCC(n3c(C)cnc3C3CCC3)C2)s1` (centres undefined): 591 s; for `Cc1ccc(-c2nc(CN3CCCC(C(=O)NC4CCCCNC4=O)C3)no2)cc1` (centres undefined): 638 s. `COC[C@@H]1CN(C(=O)c2cc(C)oc2C)C[C@H]1c1nc(C)no1` yielded an RP-LC retention time of 748 s. The compound `COc1ccc(N2CC(c3noc(-c4cc(F)cc(F)c4)n3)CC2=O)cc1OC` (centres undefined) yielded an RP-LC retention time of 899 s. The same measure for `O=C(CCC1CCCN(c2cc(NC3CC3)ncn2)C1)NCCc1ccncc1` (centres undefined): 564 s.

`Cc1ccc(Sc2nccnc2N2CCCC(C(=O)N3CCN(c4cccc(C)c4)CC3)C2)cc1` (centres undefined) returned an RP-LC retention time of 1310 s.

With `CCOc1cc(=O)n2c(c1C(=O)Nc1cc(OC)c(Cl)cc1OC)CCCC2`, the RP-LC retention time is 763 s. The same measure for `Cc1ccc(Cn2cccc2-c2nc(-c3ccc(F)cc3)no2)cc1`: 1460 s; for `CC(C)N1CC(CNC(=O)c2ccco2)C2(CCCCC2)C1` (centres undefined): 593 s. With `COc1ccc(OC)c(NC(=O)C2CCCN2S(=O)(=O)c2cc3c(cc2C)NC(=O)CO3)c1` (centres undefined) the figure was 772 s; with `Cn1nccc1-c1cccc(-c2noc(-c3cc(Cl)ccc3F)n2)c1`, 1210 s; with `Cc1ccc(CNC(=O)c2ccc3c(c2)nc2n3CCCCC2)o1`, 619 s. In turn, `O=C(CN1C(=O)C2CCCCN2c2ccc(S(=O)(=O)N3CCCC3)cc21)N1CCOCC1` (centres undefined) showed an RP-LC retention time of 750 s. On to `CCOC(=O)C1CCN(C2=NS(=O)(=O)c3ccccc32)CC1`, for which the RP-LC retention time came out at 739 s. `O=C1CC(/C=C/c2ccccc2)Cc2nc(N3CCN(c4ccccn4)CC3)ncc21` (centres undefined): the RP-LC retention time is 754 s. In turn, `Cc1cc(C(=O)NCCCN2CCN(c3cc(Cl)ccc3C)CC2)n(-c2ccccc2)n1` returned an RP-LC retention time of 726 s.

Compound `CCc1ccc(OCC(=O)Nc2ccc(S(N)(=O)=O)cc2)c(Br)c1` registered an RP-LC retention time of 836 s. `Cc1ncc2c(n1)C[C@@H]1CC[C@H]2N1C(=O)c1sccc1C`: the RP-LC retention time was determined as 654 s. The same measure for `O=C(NCc1ccc(F)cc1)c1cccc(-c2ccc(N3CCCC3)nc2)c1`: 680 s; for `COc1ccc(CNC(=O)C2CCCN(c3nnc4ccc(C(F)(F)F)cn34)C2)cc1` (centres undefined): 783 s; for `CC1CCCN(c2nn3c(C(=O)NCCc4c[nH]c5ccccc45)cc(=O)nc3s2)C1` (centres undefined): 838 s. Consider `Cc1ccc(N2N=C(C(=O)N3CCCC3)S(=O)(=O)c3cccnc32)cc1`, for which the RP-LC retention time came out at 830 s. The same measure for `Cc1nnc(N2CCC(C(=O)N3CCC(C(N)=O)CC3)CC2)c2nn(-c3ccccc3)c(C)c12`: 599 s. For `CCC1Oc2ccc(S(=O)(=O)N3CCC(C(=O)N4CCN(CC)CC4)CC3)cc2NC1=O` (centres undefined), the RP-LC retention time was 573 s.

Consider `COC(=O)C1=CN(c2ccccc2C)c2ccccc2S1(=O)=O`, for which the RP-LC retention time was determined as 848 s. The compound `COc1ccc(C)cc1Nc1nc(N)nc(CN2CCN(c3ccccn3)CC2)n1` yielded an RP-LC retention time of 606 s. Compound `CCOC(=O)c1c(S(=O)(=O)N2CCC(C(=O)Nc3ccc(OCC)cc3)CC2)c(C)n(C)c1C` had an RP-LC retention time of 853 s.

The compound `Cc1ccc(C)c(CNC(=O)c2cccn2Cc2noc(C)n2)c1` displayed an RP-LC retention time of 893 s. Turning to `O=C(NCc1ccncc1)C1CCCN(c2ncnc3c2oc2ccccc23)C1` (centres undefined), the RP-LC retention time was 579 s.

On to `COc1ccc(NC(=O)CN2CCc3[nH]c4c(C)c(Cl)ccc4c(=O)c3C2)c(OC)c1`, for which the RP-LC retention time was found to be 656 s. Consider `CCCN1C(=O)COc2ccc(-c3noc(-c4ccc(Cl)cc4OC)n3)cc21`, for which the RP-LC retention time came out at 1260 s.

The compound `O=C1N(C2CCN(S(=O)(=O)c3cccnc3)CC2)C(c2ccccc2)C12CCCC2` (centres undefined) returned an RP-LC retention time of 912 s. `COCCCn1c(=O)c2ccccc2n(Cc2nc(-c3cccc(OC)c3)no2)c1=O` yielded an RP-LC retention time of 1040 s. Compound `Cc1nc(NS(=O)(=O)CCOc2ccc(F)cc2)sc1C` came in with an RP-LC retention time of 710 s.

Take `COC(=O)c1ccc(NC(=O)C2(C)Oc3cccnc3N(C(C)C)C2=O)cc1` (centres undefined): the RP-LC retention time came out at 991 s.

`O=C(Cc1csc2nc(-c3ccccc3)cn12)NCc1ccccc1Cl` came in with an RP-LC retention time of 832 s.

On to `COc1ccc(C2NC(c3ccc(OC)c(OC)c3)C(C)C(=O)C2C)cc1OC` (centres undefined), for which the RP-LC retention time came out at 755 s. Regarding `CCc1nc(-c2csc(S(=O)(=O)N3CCC(C(=O)NCc4cccnc4)CC3)c2)no1`, the RP-LC retention time was 645 s. The same measure for `Cc1ccccc1/C=C/C1=NCCN1`: 665 s.

In turn, `O=C1CCCc2cc(S(=O)(=O)N3CCC(C(=O)N4CCN(c5ccccc5)CC4)CC3)ccc2N1` displayed an RP-LC retention time of 754 s. `CC(=O)N1CCc2cc(N3CC(C(=O)NCc4ccc(C)c(C)c4)CC3=O)ccc21` (centres undefined) showed an RP-LC retention time of 750 s. The same measure for `CN(C)c1ccc(CNC(=O)C2(c3ccc(NS(C)(=O)=O)cc3)CCCCC2)cc1`: 672 s; for `CN(C)CCNC(=O)CN1C(=O)CN(C(=O)NCc2ccccc2)c2ccccc21`: 606 s. With `CN(C)S(=O)(=O)c1ccc(-c2nnc(C(=O)NCCN3CCOCC3)o2)cc1` the figure was 1270 s; with `CCCc1nc(-c2c(C)cc(C)nc2NC(=O)c2ccc(F)cc2)no1`, 864 s; with `Cn1nc(-c2nc(C3CC3)no2)c2c1CCN(C(=O)c1ccc(Br)cc1)C2`, 893 s. The same measure for `CC(C)(C)NC(=O)N1CC(n2cc(C(=O)N3CCOCC3)nn2)C1`: 646 s; for `COCCCN(CC(=O)N1CCNCC1)C(=O)c1ccc(Br)cc1`: 603 s; for `CC(=O)Nc1ccc(NC(=O)c2cc3sccc3n2Cc2ccc(F)cc2)cc1`: 911 s. In the case of `CCOC(=O)c1sc2ncnc(N3CCN(c4ccccc4OC)CC3)c2c1C`, the RP-LC retention time was found to be 1200 s.

`O=C(CN1CCN(Cc2ccc(F)cc2)C1=O)NCc1cccc(F)c1` yielded an RP-LC retention time of 790 s. The same measure for `CN(CCc1ccccn1)C(=O)C1CCN(c2cnn(C)c(=O)c2)CC1`: 553 s.
